{"source": "paper PMC2360547", "about": "(British Journal of Cancer, 2006)", "key": {"[1]": {"test_system": "multidrug resistant cells (R100; CCRF CEM cells resistant to 100 ng ml−1 vinblastine)", "details": "for Percent of potential maximum reversal of multidrug resistance: plasma from patients receiving midostaurin 75 mg t.i.d.", "method": "This was determined using a previously reported method that assessed the capacity of cremophor EL to inhibit MDR^10. Briefly, the ability of the patient's plasma to modulate ex vivo intracellular daunorubicin accumulation in multidrug resistant cells (R100; CCRF CEM cells resistant to 100 ng ml^−1 vinblastine) was measured using fluorescence detection. The activity of 20 μg ml^−1 Valspodar (PSC833, an inhibitor of P-glycoprotein) added to the patient's prestudy plasma sample defined 100% reversal ([…] of daunorubicin). […] The modulating ability of day 29 plasma samples was determined relative to this. All assays were performed in triplicate. Blank plasma was spiked with 1.0 μl ml^−1 cremophor EL and run as an inter-assay control."}, "[2]": {"test_system": "patients with metastatic melanoma", "assay": "Phase IIA clinical trial: safety and toxicity", "assay_type": "in vivo, human", "method": "Disease sites were re-evaluated by clinical examination monthly or CT every 2 months, or more frequently if disease progression was suspected.\nIt was planned to recruit 14 patients with disease suitable for biopsy as the first cohort. […] If at least one response occurred, a further 13 patients (not necessarily with disease suited for biopsy) would be recruited. Response and toxicity were assessed using WHO criteria."}, "PKC": {"test_system": "PKC", "method": "Tumour biopsies were immediately frozen in liquid nitrogen and stored at −70°C until analysis. Heparinised blood (10 ml) was collected predose and at day 28.\nTumours were powdered in liquid nitrogen and homogenised on ice using an Ultra-Turrax in a buffer containing 20 mM HEPES, pH 7.4, 2 mM EDTA, 25 mM β-glycerophosphate, 0.2 mM DTT, 10 μg ml^−1 leupeptin, 10 μg ml^−1 aprotinin, 1 μg ml^−1 pepstatin, 1 μM sodium orthovanadate and 0.5 mM PMSF. Extracts were then sonicated in an ice cold sonicating bath for 5 min before centrifugation at 1000 g for 5 min to remove cellular debris. Supernatants were centrifuged at 50 000 g for 15 min to separate cytosolic (supernatant) and particulate (pellet) fractions. The supernatant was kept as ‘cytosolic’ fraction. The pellet was further extracted by resuspension in the original lysis buffer including 1% NP-40. Following sonication for 5 min on ice, the extract was centrifuged at 50 000 g for 15 min. The supernatant from this spin (which derived from the original pellet) was kept as the ‘particulate’ fraction. All steps were performed at 4°C or on ice.\nThe protein concentrations of the cytosolic and particulate fractions were measured after TCA precipitation using the Dc protein assay kit (Bio-Rad).\nIntratumoral total PKC activity was measured in cytosolic and particulate fractions using protamine sulphate as the substrate, following the method of a validated assay ([Budworth and Gescher, 1995]). The PKC assay was performed with 4–5 μl of the cytosol or particulate extract (2–50 μg protein) in a total reaction volume of 200 μl, including 200 μg ml^−1 protamine sulphate, 150 μM (γ-^32P)ATP (200 c.p.m. pmol^−1) in a buffer containing 20 mM Tris-HCl, pH 7.4, 10 mM magnesium acetate and 0.5 mM EGTA. The reaction was terminated after 6–7 min (30°C) by spotting 35 μl of the mix onto P81 phosphocellulose paper, followed by washing in 75 mM phosphoric acid. Bound, phosphorylated protamine sulphate was quantitated by scintillation counting of the phosphocellulose papers. Protein kinase C activity was determined by phosphate incorporation into protamine sulphate and expressed as picomolar of phosphate transferred min mg^−1 protein. Measurements were performed in triplicate. Each patient's pretreatment and day 28 biopsies were processed together and analysed in the same assay run. Up to six patients’ samples could be analysed in one day to minimise interassay variability."}, "[3]": {"design": "method as in Propper et al, 2001", "details": "Phase I trial, oral; ref Propper et al, 2001; cited from earlier work"}, "[4]": {"test_system": "acute myeloid leukaemia (AML)", "design": "method as in Stone et al, 2005", "details": "ref Stone et al, 2005, cited from earlier work"}, "[5]": {"design": "method as in Novartis internal report", "details": "ref Novartis internal report; cited from earlier work"}, "PKCα": {"test_system": "PKCα", "design": "method as in Fabbro et al, 2000", "details": "ref Fabbro et al, 2000; cited from earlier work"}, "[6]": {"test_system": "patients with advanced cancer", "details": "ref Propper et al, 2001, cited from earlier work"}, "[7]": {"assay": "Plasma concentrations by HPLC with fluorescence detection", "assay_type": "in vivo, human", "details": "for concentration at 28 day: human, plasma, oral", "method": "Therefore, the tumour tissue was frozen and cut into as small as possible pieces with a scalpel. The pieces were weighed, added to 1 ml of water, vortexed and thereafter treated like plasma. The assay for plasma samples was validated with acceptable calibration curves, within-study variability and total recovery. […] Due to limited availability of tumour tissue, the within-study validation for tumour assay was not performed."}, "[8]": {"details": "20 μg ml−1 added to pretreatment plasma, 100% = 20 μg ml−1 Valspodar"}, "[9]": {"details": "one patient resistant to midostaurin with abundance of PKCξ"}}, "note": "Several values for one entry are separate records, joined by “and”; a condition that tells them apart may be missing. Identical values can stand only once. Like-named read-outs stand apart in the source and are kept apart here.", "data": [{"smiles": "CO[C@@H]1[C@H](N(C)C(=O)c2ccccc2)C[C@H]2O[C@]1(C)n1c3ccccc3c3c4c(c5c6ccccc6n2c5c31)C(=O)NC4", "note": "[Midostaurin, N-benzoyl-staurosporine]", "values": [{"measurement": "Percent of potential maximal reversal of multidrug resistance, mean", "setting": "[1]; [8]", "result": 40, "unit": "%"}, {"measurement": "Percent of potential maximal reversal of multidrug resistance, range", "setting": "[1]; [8]", "result": "14–64%"}, {"measurement": "Percent of potential maximum reversal of multidrug resistance", "setting": "[1]; 10 out of 12 patients", "result": "< 10", "unit": "%"}, {"measurement": "Percent of potential maximum reversal of multidrug resistance", "setting": "[1]; all 12 patients", "result": "< 20", "unit": "%"}, {"measurement": "Patients with anaemia", "setting": "[2]; 17 patients", "result": 12, "unit": "patients"}, {"measurement": "Patients with anaemia reaching grade 2", "setting": "[2]; 17 patients", "result": "five"}, {"measurement": "Patients requiring dose modification for nausea or vomiting", "setting": "[2]; 17 patients, 75 mg p.o. t.i.d.", "result": "Two"}, {"measurement": "Patients with hyperglycemia", "setting": "[2]; 17 patients, one of Grade 2 severity", "result": "Four"}, {"measurement": "Patients with elevated liver enzymes (alanine transaminase or aspartate transaminase) possibly linked to therapy", "setting": "[2]; 17 patients, only one reached grade 2", "result": "four"}, {"measurement": "Patients who discontinued owing to nausea, vomiting, diarrhoea and/or fatigue possibly related to study drug", "setting": "[2]; seven out of 17 patients, 75 mg p.o. t.i.d.", "result": 41, "unit": "%"}, {"measurement": "Effect on phosphorylation of protamine sulphate", "setting": "PKC; 10 μM added to melanoma biopsies from nontrial patients", "result": "inhibited phosphorylation"}, {"measurement": "Reduction of cytosolic PKC activity compared to pretreatment biopsy", "setting": "PKC; day 28 tumour biopsy, in seven out of nine patients", "result": "7–91%"}, {"measurement": "Change of cytosolic PKC activity", "setting": "PKC; [9]", "result": "unchanged"}, {"measurement": "Increase in particulate PKC activity", "setting": "PKC; [9]", "result": 65, "unit": "%"}, {"measurement": "Percentage of total PKC activity present in the particulate fraction", "setting": "PKC; patient 10, day 28 (day 0: 19.1%)", "result": 15.4, "unit": "%"}, {"measurement": "Percentage of total PKC activity present in the particulate fraction", "setting": "PKC; patient 11, day 28 (day 0: 15.7%)", "result": 11.1, "unit": "%"}, {"measurement": "Elimination t1/2, range", "setting": "[3]", "result": "22 to 96", "unit": "h"}, {"measurement": "Estimated median elimination t1/2", "setting": "[3]", "result": 38.4, "unit": "h"}, {"measurement": "Tolerability", "setting": "[4]; 225 mg day−1 in AML", "result": "well-tolerated"}, {"measurement": "AML patients with a 50% reduction in bone marrow blast cells", "setting": "[4]", "result": 25, "unit": "%"}, {"measurement": "AML patients with a 50% reduction of peripheral blood blast cells", "setting": "[4]", "result": 70, "unit": "%"}, {"measurement": "Plasma protein binding", "setting": "[5]", "result": 99, "unit": "%"}, {"measurement": "IC50", "setting": "PKCα", "result": 22, "unit": "nM"}, {"measurement": "Response in two patients with cholangiocarcinoma", "setting": "[6]; for 4 months on midostaurin", "result": "one had stable disease and one a partial response"}, {"measurement": "MTD", "setting": "[6]; oral, 12.5–300 mg day−1", "result": "not reached"}, {"measurement": "Patients with nausea/vomiting", "setting": "[6]; oral, 225–300 mg day−1 (grade 3 in 3)", "result": "15 out of 16"}, {"measurement": "Patients with grade 2 diarrhoea", "setting": "[6]; oral, 225–300 mg day−1", "result": "six out of 16"}, {"measurement": "concentration at 28 day", "setting": "[7]; 75 mg three times a day, calculated for median plasma concentration of 2342 nM and 99% protein binding, read-out: Free plasma concentration", "result": 23.4, "unit": "nM"}, {"measurement": "concentration at 28 day", "setting": "[7]; 75 mg tid, 12 subjects, about 1 month of 75 mg tid, read-out: Plasma concentrations, maximum", "result": 4650, "unit": "nM"}, {"measurement": "concentration at 28 day", "setting": "[7]; 75 mg tid, 12 subjects, about 1 month of 75 mg tid, read-out: Plasma concentrations, mean", "result": 2450, "unit": "nM"}, {"measurement": "concentration at 28 day", "setting": "[7]; 75 mg tid, 12 subjects, about 1 month of 75 mg tid, read-out: Plasma concentrations, median", "result": 2340, "unit": "nM"}, {"measurement": "concentration at 28 day", "setting": "[7]; 75 mg tid, 12 subjects, about 1 month of 75 mg tid, read-out: Plasma concentrations, minimum", "result": 771, "unit": "nM"}, {"measurement": "concentration at 28 day", "setting": "[7]; 75 mg tid, 12 subjects, about 1 month of 75 mg tid, read-out: Plasma trough concentrations, range", "result": "771 to 4650", "unit": "nM"}, {"measurement": "Plasma concentrations", "setting": "[7]; individual subjects, sampling day 27-30, midostaurin 75 mg tid", "result": "2614 nM and 1639 nM and 771 nM and 2901 nM and 2226 nM and 2387 nM and 4649 nM and 1765 nM and 1437 nM and 2297 nM and 3549 nM and 3212 nM"}]}]}
